Test results: US20250164463A1, “SCREENING METHOD AND THERAPEUTIC AGENT FOR MENTAL DISORDER” (Fujita Health University, priority 2022, published 2025)

How the values were obtained:
[1] = test system: mice after alcohol intake and alcohol abstinence; assay: Marble-burying behavior test (MB) in mice after alcohol intake and alcohol abstinence; assay type: in vivo, C57BL/6J mice; details: clemastine 10 mg/kg orally every day from end of EtOH administration to final day of behavioral tests; EtOH+clemastine group vs EtOH group; FIG. 5(b)
Description: (§1) Male C57BL/6J mice at the age of 4 weeks (P28) were used. The mice were accommodated in a plastic cage and maintained at a light-dark cycle of 12 hours (lighting at 8:00 A.M.) with ad libitum access to feed and water.
(§2) Sixteen mice were orally administered EtOH (3.0 g/kg; diluted to 25% with sterile water) intermittently from P28 to P45 for 10 days in total (once a day) according to the schedule of FIG. 1(a). Sixteen control mice were orally administered sterile water in the same amount as that in the mice administered EtOH.
(§3) All the behavioral experiments were performed between 10:00 A.M. and 6:00 P.M. To obtain an indicator of sociality, a social interaction test was conducted. To obtain an indicator of anxiety behavior, a marble-burying behavior test and a novelty suppressed feeding test were conducted. To obtain an indicator of cognitive function, a novel object recognition test was conducted. To reduce influences from previous experiments, the social interaction test, the marble-burying behavior test, the novelty suppressed feeding test, and the novel object recognition test were conducted in the stated order. […]
The marble-burying behavior test was conducted by a method in conformity with a previous report (Alkam T et al., Behav Brain Res. 2013 Feb. 15; 239: 80-9). […] When ⅔ of the surface area of a marble was covered with the sawdust, the marble was counted as being buried. […]

[2] = test system: myelin sheath marker (MAG) in prefrontal cortexes of mice after alcohol intake and alcohol abstinence; assay: Immunohistochemical staining of prefrontal cortex with myelin sheath marker (MAG), myelin sheath formation enhancing effect; assay type: in vivo; details: clemastine 10 mg/kg orally every day after end of EtOH administration, ImageJ, FIG. 8(b), 8(c)
Description: Mice (4 mice for each group) were administered EtOH in the same manner as in Examples 1 and 2. Control mice (4 mice for each group) were orally administered sterile water in the same amount as that in the mice administered EtOH. […] Frozen slices of prefrontal cortexes and hippocampuses of the mice prepared were heated in a 10 mM citrate buffer solution (pH 6.0) with a microwave oven for 5 minutes. After washed with PBS, the slices were subjected to blocking with 5% normal horse serum (Cat #S-2000, Vector Laboratories, Inc., Burlingame, CA, USA) in PBST for 1 hour. After that, the slices were caused to react with one of primary antibodies at 4° C. overnight. After washed with PBST, the slices were caused to react with a secondary antibody (1:2,000) at room temperature for 3 hours. The primary antibodies used were a mouse anti-CC1 antibody (1:500; Cat #MABF850, Millipore) and a goat anti-PDGFRα antibody (1:200; Cat #AF1062, R&D Systems Inc.)

[3] = test system: mice after alcohol intake and alcohol abstinence; assay: Novelty suppressed feeding test (NSF) in mice after alcohol intake and alcohol abstinence; assay type: in vivo, C57BL/6J mice; details: clemastine 10 mg/kg orally every day from end of EtOH administration to final day of behavioral tests; EtOH+clemastine group vs EtOH group; FIG. 5(b)
Description: as §1, §2, §3
The novelty suppressed feeding test was conducted by a method in conformity with a previous report (Lu Q et al., Behav Brain Res. 2019 Oct. 17; 372: 112053). […] A latency time taken for feed intake was recorded. […]

[4] = test system: mice after alcohol intake and alcohol abstinence; assay: Social interaction test (SIT) in mice after alcohol intake and alcohol abstinence; assay type: in vivo, C57BL/6J mice; details: clemastine 10 mg/kg orally every day from end of EtOH administration to final day of behavioral tests; EtOH+clemastine group vs EtOH group; FIG. 5(b)
Description: as §1, §2
All the behavioral experiments were performed between 10:00 A.M. and 6:00 P.M. To obtain an indicator of sociality, a social interaction test was conducted. To obtain an indicator of anxiety behavior, a marble-burying behavior test and a novelty suppressed feeding test were conducted. To obtain an indicator of cognitive function, a novel object recognition test was conducted. […]
The social interaction test was conducted by a method in conformity with a previous report (Mouri A et al., J Neurosci. 2012 Mar. 28; 32(13): 4562-80). […] A time length of a social interaction (e.g., smelling each other, grooming each other, pursuing, mounting, or crawling) was recorded. […]

CN1CCC[C@@H]1CCO[C@](C)(c1ccccc1)c1ccc(Cl)cc1 [clemastine]
significantly remitted: anxiety-like behavior (marble-burying behavior test) [1] | myelin sheath abnormality in the prefrontal cortexes (MAG signal intensity) [2] | anxiety-like behavior (novelty suppressed feeding test) [3] | social interaction reduction (social interaction test) [4]
